Source: patent US20140057332A1, “GLUCO-OLIGOSACCHARIDE OXIDASES FROM ACREMONIUM STRICTUM AND USES THEREOF” (The Governing Council of the University of Toronto, priority 2011, published 2014)
Changes are numbered by the printed parent chain.

Columns and labels:
[1] = system: Acremonium strictum strain T1 gluco-oligosaccharide oxidase GOOX-T1; conditions: cited from earlier work
[2] = target: T1, Acremonium strictum gluco-oligosaccharide oxidase GOOX-VN variant 1 Y300A, SEQ ID NO. 6 (Sarocladium strictum, UniProt D7PF15, A38V/S388N/Y300A); assay: Enzymatic assay, kinetic analysis (chromogenic H2O2 assay) of Y300A; conditions: 37° C., pH 8.0
T1 sequence (D7PF15 1-474 A38V/Y300A/S388N): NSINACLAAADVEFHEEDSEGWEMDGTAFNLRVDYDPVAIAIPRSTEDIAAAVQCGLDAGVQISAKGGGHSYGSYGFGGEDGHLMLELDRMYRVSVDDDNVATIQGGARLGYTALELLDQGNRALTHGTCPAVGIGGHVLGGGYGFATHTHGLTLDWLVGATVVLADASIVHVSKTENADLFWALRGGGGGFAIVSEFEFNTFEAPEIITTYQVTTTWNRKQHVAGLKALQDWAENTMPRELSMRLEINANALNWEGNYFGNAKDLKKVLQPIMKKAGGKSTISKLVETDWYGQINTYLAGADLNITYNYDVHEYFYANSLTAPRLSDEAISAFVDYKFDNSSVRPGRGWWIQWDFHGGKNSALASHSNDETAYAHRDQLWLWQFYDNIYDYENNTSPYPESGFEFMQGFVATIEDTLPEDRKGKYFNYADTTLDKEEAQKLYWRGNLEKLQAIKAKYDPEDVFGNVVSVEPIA
Experimental: (§1) A chromogenic assay was used to measure hydrogen peroxide production (15). Reactions contained 0.1 mM 4aminoantipyrine (4AA), 1 mM phenol, 0.5 U horseradish peroxidase, 40 mM Tris-HCl (pH 8.0), and different substrates were initiated by adding 0.2 μg of enzymes to the 250 μL reaction mixture. The production of H2O2 was coupled to the oxidation of 4aminoantipyrine by horseradish peroxidase and detected at 500 nm. Reactions were incubated at 37° C. for 15 min to measure the specific activity of GOOX on 10 mM of monosaccharide or 1 mM of oligosaccharide.
(§2) At least 12 substrate concentrations were included to obtain kinetic parameters for each substrate. Initial rates were obtained by measuring reaction products every 30 s for 15 min at 37° C. and pH 8.0, and kinetic parameters were calculated using the Michaelis-Menten equation (GraphPad Prism5 Software).

[3] = target: T2, Acremonium strictum gluco-oligosaccharide oxidase GOOX-VN variant 2 Y300N, SEQ ID NO. 7 (Sarocladium strictum, UniProt D7PF15, A38V/S388N/Y300N); assay: Enzymatic assay, kinetic analysis (chromogenic H2O2 assay) of Y300N; conditions: 37° C., pH 8.0
T2 sequence (D7PF15 1-474 A38V/Y300N/S388N): T1 sequence (D7PF15 1-474 A38V/Y300A/S388N) with A300N
Experimental: as §1, §2

[4] = system: Acremonium strictum gluco-oligosaccharide oxidase (GOOX); conditions: oxidation of maltose, Fan et al. (2000); cited from earlier work
[5] = target: T3, Acremonium strictum gluco-oligosaccharide oxidase GOOX-VN (type strain CBS 346.70, V38 and N388), SEQ ID NO. 2 (Sarocladium strictum, UniProt D7PF15, A38V/S388N); assay: Enzymatic assay, kinetic analysis (chromogenic H2O2 assay) of GOOX-VN; conditions: 37° C., pH 8.0
T3 sequence (D7PF15 1-474 A38V/S388N): T1 sequence (D7PF15 1-474 A38V/Y300A/S388N) with A300Y

SMILES | catalytic efficiency (in words) ([1]; native GOOX purified from A. strictum T1) | kcat [2] [s⁻¹] | kcat [3] [s⁻¹] | kcat ([1]; recombinant GOOX-T1) [s⁻¹] | Km, pH dependence [4] | kcat [5] [s⁻¹] | kcat ([5]; listed as maltose) [s⁻¹]
OC[C@H]1O[C@@H](O[C@H]2[C@H](O)[C@@H](O)[C@H](O[C@H]3[C@H](O)[C@@H](O)C(O)O[C@@H]3CO)O[C@@H]2CO)[C@H](O)[C@@H](O)[C@@H]1O (stereo partly shown) [Cellotriose, cellotriose] | highest | 11.12 ± 0.158 | 9.983 ± 0.0817 |  |  |  | 
OC[C@H]1O[C@H](O[C@H]2[C@H](O)[C@@H](O)C(O)O[C@@H]2CO)[C@H](O)[C@@H](O)[C@@H]1O (stereo partly shown) [Maltose, maltose] |  |  |  | 6.02 | highest at pH 9 | 6 ± 0.085 | 6
